# Publication PMC7284133, “Identification and analysis of novel small molecule inhibitors of RNase E: Implications for antibacterial targeting and regulation of RNase E” (Biochemistry and Biophysics Reports, 2020)
# pIC50: −log10 of the molar value.
# Assays:
# [1] = molecular target: T1, RNase E (Escherichia coli, UniProt P21513); assay: FRET-based real-time RNA cleavage assay; also discontinuous PAGE assay; type: biochemical
# T1 construct: gene rne; N-terminal domain (aa 1–529), N-terminally His10-tagged
# T1 sequence (P21513 1-529): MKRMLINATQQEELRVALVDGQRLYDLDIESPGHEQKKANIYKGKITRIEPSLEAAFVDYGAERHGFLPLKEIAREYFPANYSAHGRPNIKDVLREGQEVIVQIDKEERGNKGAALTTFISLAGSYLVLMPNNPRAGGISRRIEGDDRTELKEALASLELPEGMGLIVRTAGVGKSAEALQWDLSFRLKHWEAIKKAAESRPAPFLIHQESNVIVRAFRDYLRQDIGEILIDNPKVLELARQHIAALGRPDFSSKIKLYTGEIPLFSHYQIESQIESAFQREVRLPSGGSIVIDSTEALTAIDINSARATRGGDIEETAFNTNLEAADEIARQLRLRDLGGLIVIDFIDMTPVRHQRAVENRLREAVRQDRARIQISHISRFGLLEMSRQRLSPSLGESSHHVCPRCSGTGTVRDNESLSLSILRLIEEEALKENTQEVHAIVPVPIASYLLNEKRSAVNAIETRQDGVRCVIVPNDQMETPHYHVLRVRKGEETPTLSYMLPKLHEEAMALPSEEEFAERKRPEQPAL
# [2] = molecular target: T2, RNase E (Acinetobacter baumannii, UniProt A0ABX6CBI2); assay: biochemical
# T2 construct: gene rne; N-terminal domain (aa 1–544), N-terminally His10-tagged
Compound,pIC50 [1],inhibition at 2000 µM [2] [%]
CC1=NNC(=O)C1CCC(=O)O (stereo not shown) [5′S1],2.60,~60
CC(C)c1c(O)nc(SCCC(=O)O)[nH]c1=O [AS2],2.72,–
"N[C@@H]1[C@@H](O)[C@H](O)[C@@H](COP(=O)(O)O)O[C@@H]1O [AS4, glucosamine-6-phosphate]",2.68,–
